Assay results taken from ChEMBL document CHEMBL6127092, “Comprehensive structural investigation of a potent and selective CXCR4 antagonist via crosslink modification” (Eur J Med Chem, 2024).
Values belong to the compound of their own block, whether it stands above or below them. Active and inactive are the calls of the source. The calls are words filed in the database; no cut-off is given here. Where a SMILES comes first, the peptide text is derived from it. Bridges are numbered along the chain shown (N, C = ends). Triazole bridges read from a SMILES are 1,4-linked. [ ]: non-standard residue; d: D form. 2Nal = N[C@@H](Cc1ccc2ccccc2c1)C(=O)O; Dap(N3) = [N-]=[N+]=NC[C@H](N)C(=O)O; Pra = C#CC[C@H](N)C(=O)O

Tests used:
[1] = target: T1, C-X-C chemokine receptor type 4 (Homo sapiens, UniProt P61073); assay: Binding affinity to CXCR4 (unknown origin) overexpressed in human CCRF-CEM cells assessed as inhibition of ant-CXCR4 PE-antibody binding to receptor preincubated with compound for 45 mins followed by anti-CXCR4 PE-antibody addition and measured after 30 mins by flow cytometry based competitive binding assay; format: cell-based
T1 sequence (P61073 whole entry): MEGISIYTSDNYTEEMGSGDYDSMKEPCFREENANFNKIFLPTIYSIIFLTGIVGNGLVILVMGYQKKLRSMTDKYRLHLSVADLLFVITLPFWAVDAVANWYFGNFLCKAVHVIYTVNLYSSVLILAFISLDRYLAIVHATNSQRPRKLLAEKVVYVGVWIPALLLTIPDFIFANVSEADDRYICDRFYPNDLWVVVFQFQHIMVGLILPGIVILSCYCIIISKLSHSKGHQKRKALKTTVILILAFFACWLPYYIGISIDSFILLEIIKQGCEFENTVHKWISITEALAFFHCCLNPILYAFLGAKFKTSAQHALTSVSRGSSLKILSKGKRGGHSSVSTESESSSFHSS

[2] = target: T1, C-X-C chemokine receptor type 4; assay: Displacement of [125I]-CXCL12 from CXCR4 (unknown origin) overexpressed in human CCRF-CEM cells incubated for 1 hrs by gamma-counter; format: cell-based
[3] = target: T1, C-X-C chemokine receptor type 4; assay: Agonist activity at CXCR4 (unknown origin) transfected in human CCRF-CEM cells assessed as induction of internalization at 0.1 uM incubated for 45 mins by flow cytometric analysis; format: functional, cell-based
CCRF-CEM [4] = assay: Inhibition of CXCL12-mediated cell migration in human CCRF-CEM cells expressing CXCR4 at 0.01 to 10 uM incubated for 6 hrs by DAPI staining based fluorescence microscopic analysis; format: functional; settings: dose 0.01-10 µM
[5] = target: Atypical chemokine receptor 3 (Homo sapiens) (UniProt P25106); assay: Binding affinity to CXCR7 (unknown origin) overexpressed in human MCF7 cells upto 10 uM preincubated for 45 mins followed by anti-CXCR7-APC antibody addition and measured after 30 mins by flow cytometric analysis; format: cell-based; settings: time 75.0 min
Chain of Atypical chemokine receptor 3 (Homo sapiens) (P25106 whole entry): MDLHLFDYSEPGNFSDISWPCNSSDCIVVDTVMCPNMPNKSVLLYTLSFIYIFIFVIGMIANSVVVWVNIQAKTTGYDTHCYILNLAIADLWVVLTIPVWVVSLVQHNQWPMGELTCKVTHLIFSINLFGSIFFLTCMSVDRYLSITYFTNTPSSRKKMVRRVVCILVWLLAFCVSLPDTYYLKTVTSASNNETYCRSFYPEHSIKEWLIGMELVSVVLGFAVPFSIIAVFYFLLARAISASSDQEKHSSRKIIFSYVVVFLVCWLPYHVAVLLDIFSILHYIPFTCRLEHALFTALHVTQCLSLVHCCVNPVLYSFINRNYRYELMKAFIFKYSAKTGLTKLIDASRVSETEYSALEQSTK

[6] = target: T1, C-X-C chemokine receptor type 4; assay: Antagonist activity at GFP-tagged CXCR4 (unknown origin) transfected in CHO cells assessed as inhibition of CXCL12-induced cytoplasmic translocation at 0.1 to 1 uM incubated with compound for 45 mins with subsequent CXCL12 addition and measured at 30 to 90 mins by DAPI staining based fluorescence microscopic analysis; format: cell-based; settings: filed as antagonist, dose 0.1-1 µM, time 30-90 min
[7] = target: T1, C-X-C chemokine receptor type 4; assay: Agonist activity at GFP-tagged CXCR4 (unknown origin) transfected in CHO cells assessed as induction of internalization at 0.1 to 1 uM incubated with compound for 45 mins and measured at 30 to 90 mins by DAPI staining based fluorescence microscopic analysis; format: functional, cell-based; settings: dose 0.1-1 µM, time 30-90 min
[8] = target: T1, C-X-C chemokine receptor type 4; assay: Antagonist activity at CXCR4 (unknown origin) transfected in human CCRF-CEM cells assessed as inhibition of CXCL12-induced internalization at 0.1 to 1 uM preincubated for 45 mins followed by CXCL12 addition and measured after 30 mins by flow cytometric analysis; format: cell-based; settings: filed as antagonist, dose 0.1-1 µM, time 75.0 min
[9] = Stability of compound in PBS at pH 7.4 assessed as parent compound remaining at 10 uM measured after 1 hrs in presence of GSH by RP-HPLC analysis; format: physicochemical; settings: PBS with GSH, read-out: Stability
[10] = Stability of compound in PBS at pH 7.4 assessed as parent compound remaining at 10 uM measured after 2 hrs in presence of GSH by RP-HPLC analysis; format: physicochemical; settings: PBS with GSH, read-out: Stability
CCRF-CEM [11] = assay: Inhibition of CXCL12-mediated cell migration in human CCRF-CEM cells expressing CXCR4 at 0.01 uM incubated for 6 hrs by DAPI staining based fluorescence microscopic analysis; format: functional
CCRF-CEM [12] = assay: Inhibition of CXCL12-mediated cell migration in human CCRF-CEM cells expressing CXCR4 incubated for 6 hrs by DAPI staining based fluorescence microscopic analysis; format: functional; settings: dose 0.01-10 µM
[13] = Stability of compound in PBS at pH 7.4 assessed as parent compound remaining at 10 uM measured after 4 hrs in presence of GSH by RP-HPLC analysis; format: physicochemical; settings: PBS with GSH, read-out: Stability
[14] = Stability of compound in PBS at pH 7.4 assessed as parent compound remaining at 10 uM measured after 8 hrs in presence of GSH by RP-HPLC analysis; format: physicochemical; settings: PBS with GSH, read-out: Stability
[15] = Stability of compound in PBS at pH 7.4 assessed as parent compound remaining at 10 uM measured immediately in presence of GSH by RP-HPLC analysis; format: physicochemical; settings: PBS with GSH, read-out: Stability
[16] = target: T1, C-X-C chemokine receptor type 4; assay: Agonist activity at CXCR4 (unknown origin); format: functional

SMILES: CC(=O)N[C@@H](CCCNC(=N)N)C(=O)N[C@@H](C)C(=O)N[C@H]1CC(=O)NCCCC[C@@H](C(=O)O)NC(=O)[C@H](Cc2c[nH]cn2)NC(=O)[C@H](Cc2ccc3ccccc3c2)NC(=O)[C@H](CCCNC(=N)N)NC1=O
IC50 [1]: > 10 nM

SMILES: CC(=O)N[C@@H](CCCNC(=N)N)C(=O)N[C@@H](C)C(=O)N[C@@H]1CCC(=O)NCCCC[C@@H](C(=O)O)NC(=O)[C@H](Cc2c[nH]cn2)NC(=O)[C@H](Cc2ccc3ccccc3c2)NC(=O)[C@H](CCCNC(=N)N)NC1=O
IC50 [1]: > 10 nM

SMILES: CC(=O)N[C@@H](CCCNC(=N)N)C(=O)N[C@@H](C)C(=O)N[C@H]1Cn2cc(nn2)C[C@@H](C(=O)O)NC(=O)[C@H](Cc2c[nH]cn2)NC(=O)[C@H](Cc2ccc3ccccc3c2)NC(=O)[C@H](CCCNC(=N)N)NC1=O (Ac-RA[Dap(N3)]R[2Nal]H[Pra]-OH; triazole 3-7)
IC50 [2]: 36 nM

SMILES: CC(=O)N[C@@H](CCCNC(=N)N)C(=O)N[C@@H](C)C(=O)N[C@H]1CCC(=O)NCC[C@@H](C(=O)O)NC(=O)[C@H](Cc2c[nH]cn2)NC(=O)[C@H](Cc2ccc3ccccc3c2)NC(=O)[C@H](CCCNC(=N)N)NC1=O
IC50 [1]: > 10 nM

SMILES: CC(=O)N[C@@H](CCCNC(=N)N)C(=O)N[C@@H](C)C(=O)N[C@H]1CSSC(C)(C)[C@H](C(=O)O)NC(=O)[C@H](Cc2c[nH]cn2)NC(=O)[C@H](Cc2ccc3ccccc3c2)NC(=O)[C@H](CCCNC(=N)N)NC1=O
Activity [3]: inactive
inhibition (CCRF-CEM [4]): Active
Activity [5]: inactive
Activity [6]: Active
Activity [7]: inactive
Activity [8]: Active

SMILES: CC(=O)N[C@@H](CCCNC(=N)N)C(=O)N[C@@H](C)C(=O)N[C@H]1CCC(=O)NCCC[C@@H](C(=O)O)NC(=O)[C@H](Cc2c[nH]cn2)NC(=O)[C@H](Cc2ccc3ccccc3c2)NC(=O)[C@H](CCCNC(=N)N)NC1=O
IC50 [1]: > 10 nM

SMILES: CC(=O)N[C@@H](CCCNC(=N)N)C(=O)N[C@@H](C)C(=O)N[C@H]1CC(=O)NCCC[C@@H](C(=O)O)NC(=O)[C@H](Cc2c[nH]cn2)NC(=O)[C@H](Cc2ccc3ccccc3c2)NC(=O)[C@H](CCCNC(=N)N)NC1=O
IC50 [1]: > 10 nM

SMILES: CC(=O)N[C@@H](CCCNC(=N)N)C(=O)N[C@@H](C)C(=O)N[C@H]1CCC(=O)NCCCC[C@@H](C(=O)O)NC(=O)[C@H](Cc2c[nH]cn2)NC(=O)[C@H](Cc2ccc3ccccc3c2)NC(=O)[C@H](CCCNC(=N)N)NC1=O
IC50 [1]: > 10 nM

SMILES: CC(=O)N[C@@H](CCCNC(=N)N)C(=O)N[C@@H](C)C(=O)N[C@@H]1CCC(=O)NCCC[C@@H](C(=O)O)NC(=O)[C@H](Cc2c[nH]cn2)NC(=O)[C@H](Cc2ccc3ccccc3c2)NC(=O)[C@H](CCCNC(=N)N)NC1=O
IC50 [1]: > 10 nM

SMILES: CC(=O)N[C@@H](CCCNC(=N)N)C(=O)N[C@@H](C)C(=O)N[C@@H]1CSSC(C)(C)[C@@H](C(=O)O)NC(=O)[C@H](Cc2cnc[nH]2)NC(=O)[C@H](Cc2ccc3ccccc3c2)NC(=O)[C@H](CCCNC(=N)N)NC1=O
IC50 [2]: 15.2 nM
remaining at 1 h, 10 µM [9]: 88%
remaining at 2 h, 10 µM [10]: 79%
IC50 [1]: 1.5 nM
remaining at 4 h, 10 µM [13]: 65%
remaining at 8 h, 10 µM [14]: 52%
remaining at 0 h, 10 µM [15]: 100%

SMILES: CC(=O)N[C@@H](CCCNC(=N)N)C(=O)N[C@@H](C)C(=O)N[C@H]1Cc2cnnn2CC[C@@H](C(=O)O)NC(=O)[C@H](Cc2c[nH]cn2)NC(=O)[C@H](Cc2ccc3ccccc3c2)NC(=O)[C@H](CCCNC(=N)N)NC1=O
IC50 [16]: 31 nM

Now from value to compound, other results behind:

IC50 [1]: > 10 nM
SMILES: CC(=O)N[C@@H](CCCNC(=N)N)C(=O)N[C@@H](C)C(=O)N[C@H]1CC(=O)NC[C@@H](C(=O)O)NC(=O)[C@H](Cc2c[nH]cn2)NC(=O)[C@H](Cc2ccc3ccccc3c2)NC(=O)[C@H](CCCNC(=N)N)NC1=O

IC50 [1]: 756 nM
SMILES: CC(=O)N[C@@H](CCCNC(=N)N)C(=O)N[C@@H](C)C(=O)N[C@H]1CC(=O)NCC[C@@H](C(=O)O)NC(=O)[C@H](Cc2c[nH]cn2)NC(=O)[C@H](Cc2ccc3ccccc3c2)NC(=O)[C@H](CCCNC(=N)N)NC1=O

IC50 [1]: 810 nM
SMILES: CC(=O)N[C@@H](CCCNC(=N)N)C(=O)N[C@@H](C)C(=O)N[C@@H]1CNC(=O)CC[C@@H](C(=O)O)NC(=O)[C@H](Cc2c[nH]cn2)NC(=O)[C@H](Cc2ccc3ccccc3c2)NC(=O)[C@H](CCCNC(=N)N)NC1=O

IC50 [1]: 3600 nM
SMILES: CC(=O)N[C@@H](CCCNC(=N)N)C(=O)N[C@@H](C)C(=O)N[C@@H]1CNC(=O)C[C@@H](C(=O)O)NC(=O)[C@H](Cc2c[nH]cn2)NC(=O)[C@H](Cc2ccc3ccccc3c2)NC(=O)[C@H](CCCNC(=N)N)NC1=O

IC50 [1]: 2020 nM
SMILES: CC(=O)N[C@@H](CCCNC(=N)N)C(=O)N[C@@H](C)C(=O)N[C@@H]1CC(=O)NCCC[C@@H](C(=O)O)NC(=O)[C@H](Cc2c[nH]cn2)NC(=O)[C@H](Cc2ccc3ccccc3c2)NC(=O)[C@H](CCCNC(=N)N)NC1=O

IC50 [1]: 3150 nM
SMILES: CC(=O)N[C@@H](CCCNC(=N)N)C(=O)N[C@@H](C)C(=O)N[C@@H]1CC(=O)NC[C@@H](C(=O)O)NC(=O)[C@H](Cc2c[nH]cn2)NC(=O)[C@H](Cc2ccc3ccccc3c2)NC(=O)[C@H](CCCNC(=N)N)NC1=O

IC50 [2]: 3.9 nM
remaining at 1 h, 10 µM [9]: 100%
Activity [3]: inactive
remaining at 2 h, 10 µM [10]: 100%
Activity [5]: inactive
IC50 [1]: 7.8 nM
Activity [6]: Active
Activity [7]: inactive
Activity [8]: Active
remaining at 4 h, 10 µM [13]: 100%
remaining at 8 h, 10 µM [14]: 100%
remaining at 0 h, 10 µM [15]: 100%
SMILES: CC(=O)N[C@@H](CCCNC(=N)N)C(=O)N[C@@H](C)C(=O)N[C@H]1CNC(=O)CC[C@@H](C(=O)O)NC(=O)[C@H](Cc2c[nH]cn2)NC(=O)[C@H](Cc2ccc3ccccc3c2)NC(=O)[C@H](CCCNC(=N)N)NC1=O
inhibition (CCRF-CEM [11]): Active
inhibition (CCRF-CEM [12]): Dose-Dependent Effect

IC50 [1]: 510 nM
SMILES: CC(=O)N[C@@H](CCCNC(=N)N)C(=O)N[C@@H](C)C(=O)N[C@H]1CCC(=O)NC[C@@H](C(=O)O)NC(=O)[C@H](Cc2c[nH]cn2)NC(=O)[C@H](Cc2ccc3ccccc3c2)NC(=O)[C@H](CCCNC(=N)N)NC1=O

IC50 [1]: 710 nM
SMILES: CC(=O)N[C@@H](CCCNC(=N)N)C(=O)N[C@@H](C)C(=O)N[C@@H]1CC(=O)NCC[C@@H](C(=O)O)NC(=O)[C@H](Cc2c[nH]cn2)NC(=O)[C@H](Cc2ccc3ccccc3c2)NC(=O)[C@H](CCCNC(=N)N)NC1=O

IC50 [1]: 143 nM
SMILES: CC(=O)N[C@@H](CCCNC(=N)N)C(=O)N[C@@H](C)C(=O)N[C@H]1CNC(=O)C[C@@H](C(=O)O)NC(=O)[C@H](Cc2c[nH]cn2)NC(=O)[C@H](Cc2ccc3ccccc3c2)NC(=O)[C@H](CCCNC(=N)N)NC1=O

IC50 [1]: 2570 nM
SMILES: CC(=O)N[C@@H](CCCNC(=N)N)C(=O)N[C@@H](C)C(=O)N[C@@H]1CC(=O)NCCCC[C@@H](C(=O)O)NC(=O)[C@H](Cc2c[nH]cn2)NC(=O)[C@H](Cc2ccc3ccccc3c2)NC(=O)[C@H](CCCNC(=N)N)NC1=O

IC50 [1]: 238 nM
SMILES: CC(=O)N[C@@H](CCCNC(=N)N)C(=O)N[C@@H](C)C(=O)N[C@@H]1CCC(=O)NCC[C@@H](C(=O)O)NC(=O)[C@H](Cc2c[nH]cn2)NC(=O)[C@H](Cc2ccc3ccccc3c2)NC(=O)[C@H](CCCNC(=N)N)NC1=O

IC50 [1]: 89 nM
SMILES: CC(=O)N[C@@H](CCCNC(=N)N)C(=O)N[C@@H](C)C(=O)N[C@@H]1CCC(=O)NC[C@@H](C(=O)O)NC(=O)[C@H](Cc2c[nH]cn2)NC(=O)[C@H](Cc2ccc3ccccc3c2)NC(=O)[C@H](CCCNC(=N)N)NC1=O
